# Laboratory results from ChEMBL document CHEMBL5678818, “Discovery of potent SOS1 inhibitors that block RAS activation via disruption of the RAS-SOS1 interaction” (Proc Natl Acad Sci U S A, 2019).
# Key:
# [1] = target: GTPase KRas (Homo sapiens, UniProt P01116, G12C); assay: Inhibition of N-terminal GST-tagged recombinant human KRAS G12C mutant (1 to 169 residues) expressed in Escherichia coli assessed as reduction in intrinsic GTP exchange preincubated for 10 mins with KRAS followed by SOS1 addition measured after 30 mins in presence of EDA-GTP-DY-647P1 by HTRF analysis
# [2] = target: T1, Serine/threonine-protein kinase TAO3 (Homo sapiens) (UniProt Q9H2K8); assay: Inhibition of TAOK3 (unknown origin) assessed as residual activity at 100 nM by KINOMEscan analysis relative to control
# T1 sequence (whole entry): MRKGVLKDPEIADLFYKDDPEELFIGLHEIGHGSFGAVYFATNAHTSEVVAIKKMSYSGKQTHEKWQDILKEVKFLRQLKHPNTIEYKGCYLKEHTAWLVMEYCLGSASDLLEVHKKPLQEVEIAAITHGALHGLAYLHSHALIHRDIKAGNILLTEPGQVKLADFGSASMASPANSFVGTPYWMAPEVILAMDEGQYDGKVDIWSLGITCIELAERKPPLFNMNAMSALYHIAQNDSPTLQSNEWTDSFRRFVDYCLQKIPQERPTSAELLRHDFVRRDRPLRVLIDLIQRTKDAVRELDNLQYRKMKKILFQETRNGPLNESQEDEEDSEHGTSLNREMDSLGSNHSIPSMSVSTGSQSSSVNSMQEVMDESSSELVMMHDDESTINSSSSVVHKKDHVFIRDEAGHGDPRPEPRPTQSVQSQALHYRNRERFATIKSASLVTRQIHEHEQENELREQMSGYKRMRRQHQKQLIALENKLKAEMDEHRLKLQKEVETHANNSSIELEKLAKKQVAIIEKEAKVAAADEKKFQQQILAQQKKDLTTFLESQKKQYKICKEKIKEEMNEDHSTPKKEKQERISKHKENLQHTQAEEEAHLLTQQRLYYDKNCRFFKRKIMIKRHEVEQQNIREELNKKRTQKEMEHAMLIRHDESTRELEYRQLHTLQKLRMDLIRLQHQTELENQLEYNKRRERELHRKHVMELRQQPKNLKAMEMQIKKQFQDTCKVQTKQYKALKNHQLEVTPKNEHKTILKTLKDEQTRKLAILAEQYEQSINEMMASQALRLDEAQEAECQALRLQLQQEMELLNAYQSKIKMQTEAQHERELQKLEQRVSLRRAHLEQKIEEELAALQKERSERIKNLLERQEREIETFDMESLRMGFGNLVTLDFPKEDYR
# [3] = target: Ribosomal protein S6 kinase alpha-1 (Homo sapiens) (UniProt Q15418); assay: Inhibition of C-terminal RSK1 kinetic domain 2 (unknown origin) assessed as residual activity at 100 nM by KINOMEscan analysis relative to control
# [4] = target: T2, Tyrosine-protein kinase ITK/TSK (Homo sapiens) (UniProt Q08881); assay: Inhibition of ITK (unknown origin) assessed as residual activity at 100 nM by KINOMEscan analysis relative to control
# T2 sequence (whole entry): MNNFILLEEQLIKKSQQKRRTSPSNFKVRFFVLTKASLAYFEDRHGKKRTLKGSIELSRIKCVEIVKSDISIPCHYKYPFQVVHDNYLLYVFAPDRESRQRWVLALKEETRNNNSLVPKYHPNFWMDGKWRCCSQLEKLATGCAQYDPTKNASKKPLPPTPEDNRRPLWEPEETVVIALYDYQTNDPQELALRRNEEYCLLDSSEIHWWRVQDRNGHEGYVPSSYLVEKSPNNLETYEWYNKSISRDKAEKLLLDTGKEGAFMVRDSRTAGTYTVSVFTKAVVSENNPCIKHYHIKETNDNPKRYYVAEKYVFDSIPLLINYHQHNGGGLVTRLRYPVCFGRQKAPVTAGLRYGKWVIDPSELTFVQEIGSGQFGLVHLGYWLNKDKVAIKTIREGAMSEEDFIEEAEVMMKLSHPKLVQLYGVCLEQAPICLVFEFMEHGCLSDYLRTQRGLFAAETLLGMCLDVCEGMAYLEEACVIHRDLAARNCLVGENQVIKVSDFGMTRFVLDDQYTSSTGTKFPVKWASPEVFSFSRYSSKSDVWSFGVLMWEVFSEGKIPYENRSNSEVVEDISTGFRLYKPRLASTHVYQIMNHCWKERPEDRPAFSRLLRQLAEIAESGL
# [5] = target: Mitogen-activated protein kinase kinase kinase 12 (Homo sapiens) (UniProt Q12852); assay: Inhibition of DLK (unknown origin) assessed as residual activity at 100 nM by KINOMEscan analysis relative to control
# [6] = target: Peripheral plasma membrane protein CASK (Homo sapiens) (UniProt O14936); assay: Inhibition of CASK (unknown origin) assessed as residual activity at 100 nM by KINOMEscan analysis relative to control
# [7] = target: T3, Serine/threonine-protein kinase Sgk1 (Homo sapiens) (UniProt O00141); assay: Inhibition of SGK (unknown origin) assessed as residual activity at 100 nM by KINOMEscan analysis relative to control
# T3 sequence (whole entry): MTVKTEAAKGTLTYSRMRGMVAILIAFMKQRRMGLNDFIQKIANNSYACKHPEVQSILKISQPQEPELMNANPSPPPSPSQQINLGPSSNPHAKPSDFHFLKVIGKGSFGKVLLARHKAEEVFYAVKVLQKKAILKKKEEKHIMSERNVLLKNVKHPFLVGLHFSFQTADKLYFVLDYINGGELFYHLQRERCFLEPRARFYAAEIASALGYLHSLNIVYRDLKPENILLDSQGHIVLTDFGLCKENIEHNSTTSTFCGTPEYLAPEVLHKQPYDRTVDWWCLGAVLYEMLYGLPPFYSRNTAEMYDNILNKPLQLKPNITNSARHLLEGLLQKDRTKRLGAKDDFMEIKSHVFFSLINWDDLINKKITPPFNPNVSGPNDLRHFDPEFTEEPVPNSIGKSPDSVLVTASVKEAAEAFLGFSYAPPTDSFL
# [8] = target: CDK4/Cyclin D3 (Homo sapiens) (UniProt P11802+P30281); assay: Inhibition of CDK4-cyclin D3 (unknown origin) assessed as residual activity at 100 nM by KINOMEscan analysis relative to control; type: protein-complex assay
# [9] = target: TRAF2 and NCK-interacting protein kinase (Homo sapiens) (UniProt Q9UKE5); assay: Inhibition of TNIK (unknown origin) assessed as residual activity at 100 nM by KINOMEscan analysis relative to control
# [10] = test system: Hepatocyte growth factor receptor (Homo sapiens), P08581 [Y1235D]; assay: Inhibition of MET Y1235D mutant (unknown origin) assessed as residual activity at 100 nM by KINOMEscan analysis relative to control
# [11] = target: Receptor-type tyrosine-protein kinase FLT3 (Homo sapiens) (UniProt P36888); assay: Inhibition of FLT3 (unknown origin) assessed as residual activity at 100 nM by KINOMEscan analysis relative to control
compound,measurement,setting,value
COc1cc2ncnc(N[C@H](C)c3cccc4ccccc34)c2cc1OC,IC50,[1],> 20 µM
same,Activity,[2],82%
same,Activity,[3],86%
same,Activity,[4],73%
same,Activity,[5],89%
same,Activity,[6],72%
same,Activity,[7],87%
same,Activity,[8],100%
same,Activity,[9],100%
same,Activity,[10],83%
same,Activity,[11],83%
